In PubChem BioAssay AID2060891 (Molecular Pharmacology Branch, DTP, NCI, 2025):

Test system: K98450-129-R-PDC complex spheroid growth, percent test/control
Assay: Anticancer human tumor K98450-129-R-PDC patient-derived colon adenocarcinoma cell line growth inhibition [RAS]
Settings: for IC50: curve of first compound; for viability, T/C: stronger effect = lower value; active means viability on the fitted dose curve at most 10% of control; inactive means the rest
In short: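 Agents were tested in combination matrices in half-log decrements from a top concentration at or near clinical Cmax (10 microM if undetermined). Targets were multi-cell spheroids of tumour lines plus HUVEC and MSC stromal cells.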

[1] = second compound 0.00316 µM, first compound 0.000949 µM
[2] = second compound 0.00316 µM, first compound 0.003 µM
[3] = second compound 0.00316 µM, first compound 0.00949 µM
[4] = second compound 0.00316 µM, first compound 0.03 µM
[5] = second compound 0.00316 µM, first compound 0.0949 µM
[6] = second compound 0.00316 µM, first compound 0.3 µM
[7] = second compound 0.01 µM, first compound 0.000949 µM
[8] = second compound 0.01 µM, first compound 0.003 µM
[9] = second compound 0.01 µM, first compound 0.00949 µM
[10] = second compound 0.01 µM, first compound 0.03 µM
[11] = second compound 0.01 µM, first compound 0.0949 µM
[12] = second compound 0.01 µM, first compound 0.3 µM
[13] = second compound 0.0316 µM, first compound 0.000949 µM
[14] = second compound 0.0316 µM, first compound 0.003 µM
[15] = second compound 0.0316 µM, first compound 0.00949 µM
[16] = second compound 0.0316 µM, first compound 0.03 µM
[17] = second compound 0.0316 µM, first compound 0.0949 µM
[18] = second compound 0.0316 µM, first compound 0.3 µM
[19] = second compound 0.1 µM, first compound 0.000949 µM
[20] = second compound 0.1 µM, first compound 0.003 µM
[21] = second compound 0.1 µM, first compound 0.00949 µM
[22] = second compound 0.1 µM, first compound 0.03 µM
[23] = second compound 0.1 µM, first compound 0.0949 µM
[24] = second compound 0.1 µM, first compound 0.3 µM
[25] = second compound 0.316 µM, first compound 0.000949 µM
[26] = second compound 0.316 µM, first compound 0.003 µM
[27] = second compound 0.316 µM, first compound 0.00949 µM
[28] = second compound 0.316 µM, first compound 0.03 µM
[29] = second compound 0.316 µM, first compound 0.0949 µM
[30] = second compound 0.316 µM, first compound 0.3 µM
[31] = second compound 1 µM, first compound 0.000949 µM
[32] = second compound 1 µM, first compound 0.003 µM
[33] = second compound 1 µM, first compound 0.00949 µM
[34] = second compound 1 µM, first compound 0.03 µM
[35] = second compound 1 µM, first compound 0.0949 µM
[36] = second compound 1 µM, first compound 0.3 µM
[37] = second compound 0.000949 µM, first compound 0.00316 µM
[38] = second compound 0.000949 µM, first compound 0.01 µM
[39] = second compound 0.000949 µM, first compound 0.0316 µM
[40] = second compound 0.000949 µM, first compound 0.1 µM
[41] = second compound 0.000949 µM, first compound 0.316 µM
[42] = second compound 0.000949 µM, first compound 1 µM
[43] = second compound 0.003 µM, first compound 0.00316 µM
[44] = second compound 0.003 µM, first compound 0.01 µM
[45] = second compound 0.003 µM, first compound 0.0316 µM
[46] = second compound 0.003 µM, first compound 0.1 µM
[47] = second compound 0.003 µM, first compound 0.316 µM
[48] = second compound 0.003 µM, first compound 1 µM
[49] = second compound 0.00949 µM, first compound 0.00316 µM
[50] = second compound 0.00949 µM, first compound 0.01 µM
[51] = second compound 0.00949 µM, first compound 0.0316 µM
[52] = second compound 0.00949 µM, first compound 0.1 µM
[53] = second compound 0.00949 µM, first compound 0.316 µM
[54] = second compound 0.00949 µM, first compound 1 µM
[55] = second compound 0.03 µM, first compound 0.00316 µM
[56] = second compound 0.03 µM, first compound 0.01 µM
[57] = second compound 0.03 µM, first compound 0.0316 µM
[58] = second compound 0.03 µM, first compound 0.1 µM
[59] = second compound 0.03 µM, first compound 0.316 µM
[60] = second compound 0.03 µM, first compound 1 µM
[61] = second compound 0.0949 µM, first compound 0.00316 µM
[62] = second compound 0.0949 µM, first compound 0.01 µM
[63] = second compound 0.0949 µM, first compound 0.0316 µM
[64] = second compound 0.0949 µM, first compound 0.1 µM
[65] = second compound 0.0949 µM, first compound 0.316 µM
[66] = second compound 0.0949 µM, first compound 1 µM
[67] = second compound 0.3 µM, first compound 0.00316 µM
[68] = second compound 0.3 µM, first compound 0.01 µM
[69] = second compound 0.3 µM, first compound 0.0316 µM
[70] = second compound 0.3 µM, first compound 0.1 µM
[71] = second compound 0.3 µM, first compound 0.316 µM
[72] = second compound 0.3 µM, first compound 1 µM
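Further: spheroids exposed to agents for seven days before the viability readout.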
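Wherever viability, T/C is given: luminescence used as a proxy for viable cell amount.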

CC1(C)CCC(Nc2ncc(C(F)(F)F)c(-c3c[nH]c4c(P(C)(C)=O)c(C#N)ccc34)n2)CN1 (stereo not drawn) + C=CC(=O)N1CCN(c2nc(OCC3CCCN3C)nc3c(F)c(-c4nc(N)cc(C)c4C(F)(F)F)c(Cl)cc23)C(C)C1
0.27 µM: IC50 (second compound 0.01 µM)
0.0721 µM: IC50 (second compound 0.1 µM)
inactive: viability, T/C [1] 99.3% | viability, T/C [2] 100% | viability, T/C [3] 97.8% | viability, T/C [4] 97.6% | viability, T/C [5] 84.2% | viability, T/C [6] 53.7% | viability, T/C [7] 86.4% | viability, T/C [8] 87.3% | viability, T/C [9] 84.2% | viability, T/C [10] 86.2% | viability, T/C [11] 70.6% | viability, T/C [12] 47.5% | viability, T/C [13] 70.5% | viability, T/C [14] 76.3% | viability, T/C [15] 77.3% | viability, T/C [16] 76% | viability, T/C [17] 58.5% | viability, T/C [18] 41.2% | viability, T/C [19] 60.1% | viability, T/C [20] 54.5% | viability, T/C [21] 56.1% | viability, T/C [22] 59% | viability, T/C [23] 46% | viability, T/C [24] 34.5% | viability, T/C [25] 41.1% | viability, T/C [26] 41.3% | viability, T/C [27] 40.6% | viability, T/C [28] 41.3% | viability, T/C [29] 37.8% | viability, T/C [30] 31% | viability, T/C [31] 35.1% | viability, T/C [32] 33.3% | viability, T/C [33] 35.1% | viability, T/C [34] 33.8% | viability, T/C [35] 32.9% | viability, T/C [36] 32.5%
0.166 µM: IC50 (second compound 0.0316 µM)
> 0.3 µM: IC50 (second compound 0.00316 µM)
< 0.000949 µM: IC50 (second compound 0.316 µM) | IC50 (second compound 1 µM)

CCc1c2c(nc3ccc(O)cc13)-c1cc3c(c(=O)n1C2)COC(=O)[C@]3(O)CC + C=CC(=O)N1CCN(c2nc(OCC3CCCN3C)nc3c(F)c(-c4nc(N)cc(C)c4C(F)(F)F)c(Cl)cc23)C(C)C1
0.0281 µM: IC50 (second compound 0.00316 µM)
< 0.000949 µM: IC50 (second compound 0.316 µM) | IC50 (second compound 1 µM)
0.0166 µM: IC50 (second compound 0.01 µM)
active: viability, T/C [36] 8.49%
0.00326 µM: IC50 (second compound 0.1 µM)
0.007 µM: IC50 (second compound 0.0316 µM)
inactive: viability, T/C [1] 93.5% | viability, T/C [2] 87.7% | viability, T/C [3] 68.1% | viability, T/C [4] 49.7% | viability, T/C [5] 34.1% | viability, T/C [6] 27.6% | viability, T/C [7] 86.7% | viability, T/C [8] 76.1% | viability, T/C [9] 60.6% | viability, T/C [10] 39.1% | viability, T/C [11] 29.2% | viability, T/C [12] 23.6% | viability, T/C [13] 74.5% | viability, T/C [14] 63.8% | viability, T/C [15] 46.1% | viability, T/C [16] 24.1% | viability, T/C [17] 20.6% | viability, T/C [18] 18% | viability, T/C [19] 54.6% | viability, T/C [20] 53.3% | viability, T/C [21] 33% | viability, T/C [22] 20.3% | viability, T/C [23] 16.7% | viability, T/C [24] 11.7% | viability, T/C [25] 38.1% | viability, T/C [26] 35.4% | viability, T/C [27] 25.4% | viability, T/C [28] 16.6% | viability, T/C [29] 15% | viability, T/C [30] 9.83% | viability, T/C [31] 31.7% | viability, T/C [32] 30.3% | viability, T/C [33] 23.6% | viability, T/C [34] 18.9% | viability, T/C [35] 14.1%

C=CC(=O)Nc1cc(Nc2nccc(-c3cn(C)c4ccccc34)n2)c(OC)cc1N(C)CCN(C)C + CCn1c(-c2cc(N3CCN(C)CC3)cnc2C(C)OC)c2c3cc(ccc31)-c1csc(n1)CC(NC(=O)C1CC1C)C(=O)N1CCCC(N1)C(=O)OCC(C)(C)C2
0.336 µM: IC50 (second compound 0.000949 µM)
active: viability, T/C [54] 8.83% | viability, T/C [59] 10.5% | viability, T/C [60] 7.69% | viability, T/C [65] 8.27% | viability, T/C [66] 7.06% | viability, T/C [70] 8.91% | viability, T/C [71] 7.33% | viability, T/C [72] 7.02%
< 0.00316 µM: IC50 (second compound 0.03 µM) | IC50 (second compound 0.0949 µM) | IC50 (second compound 0.3 µM)
inactive: viability, T/C [37] 91.9% | viability, T/C [38] 89.4% | viability, T/C [39] 94.1% | viability, T/C [40] 73.6% | viability, T/C [41] 52.8% | viability, T/C [42] 22.7% | viability, T/C [43] 93% | viability, T/C [44] 92% | viability, T/C [45] 72.8% | viability, T/C [46] 66.8% | viability, T/C [47] 41.8% | viability, T/C [48] 13.6% | viability, T/C [49] 74.9% | viability, T/C [50] 65.2% | viability, T/C [51] 65.6% | viability, T/C [52] 49% | viability, T/C [53] 15.2% | viability, T/C [55] 50.5% | viability, T/C [56] 49% | viability, T/C [57] 48.8% | viability, T/C [58] 18.7% | viability, T/C [61] 21% | viability, T/C [62] 18.5% | viability, T/C [63] 14.1% | viability, T/C [64] 10.6% | viability, T/C [67] 12.9% | viability, T/C [68] 11.8% | viability, T/C [69] 11.4%
0.209 µM: IC50 (second compound 0.003 µM)
0.0897 µM: IC50 (second compound 0.00949 µM)

O=C(c1ccc(F)c(F)c1Nc1ccc(I)cc1F)N1CC(O)([C@@H]2CCCCN2)C1 + CCn1c(-c2cc(N3CCN(C)CC3)cnc2C(C)OC)c2c3cc(ccc31)-c1csc(n1)CC(NC(=O)C1CC1C)C(=O)N1CCCC(N1)C(=O)OCC(C)(C)C2
inactive: viability, T/C [37] 94.8% | viability, T/C [38] 92% | viability, T/C [39] 87.4% | viability, T/C [40] 57.3% | viability, T/C [41] 10.2% | viability, T/C [43] 95.7% | viability, T/C [44] 87% | viability, T/C [45] 63.2% | viability, T/C [46] 45.8% | viability, T/C [47] 7.54% | viability, T/C [49] 67.8% | viability, T/C [50] 60.7% | viability, T/C [51] 56% | viability, T/C [52] 31.1% | viability, T/C [55] 51.7% | viability, T/C [56] 45% | viability, T/C [57] 31.1% | viability, T/C [61] 14.9%
0.118 µM: IC50 (second compound 0.000949 µM)
active: viability, T/C [42] 2.95% | viability, T/C [48] 2.62% | viability, T/C [53] 3.99% | viability, T/C [54] 2.44% | viability, T/C [58] 6.53% | viability, T/C [59] 2.64% | viability, T/C [60] 2.51% | viability, T/C [62] 10.1% | viability, T/C [63] 7.08% | viability, T/C [64] 2.95% | viability, T/C [65] 2.96% | viability, T/C [66] 2.57% | viability, T/C [67] 8.48% | viability, T/C [68] 8.02% | viability, T/C [69] 4.92% | viability, T/C [70] 2.97% | viability, T/C [71] 3.32% | viability, T/C [72] 2.59%
0.00323 µM: IC50 (second compound 0.03 µM)
0.0422 µM: IC50 (second compound 0.00949 µM)
< 0.00316 µM: IC50 (second compound 0.0949 µM) | IC50 (second compound 0.3 µM)
0.0642 µM: IC50 (second compound 0.003 µM)
